Experimental data: US8975223B2, “Methods for treating metabolic disorders and obesity with a peptide comprising the amino acid sequence of SEQ ID No. 146” (Marcadia Biotech, Inc., priority 2010, dated 2015)
Entries after “also recorded” stand apart in the source; their conditions may differ. Where no end group is shown, it is not given here. [ ]: non-standard residue; d: D form. Aib = CC(C)(N)C(=O)O

Tests used:
Assay type in all cases: in vivo, human
gastric emptying = test: Phase I two-part study, gastric emptying by plasma appearance of ingested acetaminophen
Protocol: (§1) A Phase I, randomized, placebo-controlled, positive-controlled two-part study was performed in healthy male and female subjects to evaluate the effect of a range of doses on beta cell response to a glucose load and to assess the effect of these doses on gastric emptying. Beta cell function was assessed by calculation of prehepatic insulin secretion in response to a graded glucose infusion. Gastric emptying was assessed by measurement of plasma appearance of ingested acetaminophen.
(§2) During Part 2, subjects in Cohort 2 received placebo on Day 1, followed by 8 mg of the extended half-life GLP-1/GIP coagonist peptide on Day 2. Subjects in Cohort 3 received placebo on Day 1, followed by 4 mg of the extended half-life GLP-1/GIP coagonist peptide on Day 2. Subjects in Cohort 4 received placebo on Day 1, followed by 16 mg of the extended half-life GLP-1/GIP coagonist peptide on Day 2.
(§3) Blood samples for glucose, C-peptide, insulin, and safety laboratory tests were drawn at −120, −15, and −10 minutes. At −10 minutes, subjects ingested 1000 mg acetaminophen elixir with 240 mL water. At 0 minutes, a step-wise infusion of glucose (20% dextrose) was started, a second SC injection of placebo was administered, and blood samples for glucose, C-peptide, insulin, and safety laboratory tests were drawn. Glucose was infused for a total of 2.5 hours at a rate of 2, 4, 6, 8, and 12 mg/kg/min. Each level of glucose infusion was maintained for 30 minutes. Blood samples for glucose, C-peptide, and insulin were drawn again at 10, 20, and 30 minutes during each 30-minute infusion period. Blood samples for plasma acetaminophen concentration were drawn at −10, 30, 60, 90, 120, 150, 180, 210, 240, 300, and 480 minutes.
(§4) Blood samples for glucose, C-peptide, and insulin were drawn at −120, −15, and −10 minutes. At −10 minutes, subjects ingested 1000 mg acetaminophen elixir with 240 mL water. […] Glucose was infused for a total of 2.5 hours at a rate of 2, 4, 6, 8, and 12 mg/kg/min. Each level of glucose infusion was maintained for 30 minutes. […] Blood samples for glucose, C-peptide, and insulin were drawn at 10, 20, and 30 minutes during each 30-minute infusion period. Blood samples for plasma acetaminophen concentration were drawn at −10, 30, 60, 90, 120, 150, 180, 210, 240, 300, and 480 minutes.
(§5) Blood samples for glucose, C-peptide, insulin, and safety laboratory tests were drawn at −15 and −10 minutes. At −10 minutes, subjects ingested 1000 mg acetaminophen elixir with 240 mL water. At 0 minutes, a step-wise infusion of glucose (20% dextrose) was started and blood samples for glucose, C-peptide, and insulin were drawn. Glucose was infused for a total of 2.5 hours at a rate of 2, 4, 6, 8, and 12 mg/kg/min. Each level of glucose infusion was maintained for 30 minutes. Blood samples for glucose, C-peptide, and insulin were drawn again at 10, 20, and 30 minutes during each 30-minute infusion period. Blood samples for plasma acetaminophen concentration were drawn at −10, 30, 60, 90, 120, 150, 180, 210, 240, 300, and 480 minutes.
At −10 minutes, subjects ingested 1000 mg acetaminophen elixir with 240 mL water. […] Glucose was infused for a total of 2.5 hours at a rate of 2, 4, 6, 8, and 12 mg/kg/min. Each level of glucose infusion was maintained for 30 minutes. […] Blood samples for plasma acetaminophen concentration were drawn at −10, 30, 60, 90, 120, 150, 180, 210, 240, 300, and 480 minutes.

[1] = system: beta cell response to a glucose load; test: Phase I two-part study, beta cell response to graded glucose infusion; details: for LS mean change in insulin secretion rate at each glucose infusion rate, placebo vs treatment: 72 hours after dosing, p<0.001
Protocol: as §1, §2, §3, §4, §5
On Day 2, following an overnight fast of 10 hours, a blood sample for glucose, C-peptide, and insulin was drawn at −10 minutes. Subjects received an injection of extended half-life GLP-1/GIP coagonist peptide at 0 minutes. Subjects in Cohort 2 received 8 mg of extended half-life GLP-1/GIP coagonist peptide, subjects in Cohort 3 received 4 mg of extended half-life GLP-1/GIP coagonist peptide, and subjects in Cohort 4 received 16 mg of extended half-life GLP-1/GIP coagonist peptide. At 0 minutes, a blood sample for extended half-life GLP-1/GIP coagonist peptide concentration, C-peptide, insulin, glucose, and safety laboratory tests was drawn.
At −10 minutes, subjects ingested 1000 mg acetaminophen elixir with 240 mL water. […] Glucose was infused for a total of 2.5 hours at a rate of 2, 4, 6, 8, and 12 mg/kg/min. Each level of glucose infusion was maintained for 30 minutes.

[2] = Phase I single-ascending dose study, safety, tolerability, PK and PD, single SC injection; details: for mean daily fasting glucose level by day 7: healthy subjects (placebo 78.7)
Protocol: A Phase I, randomized, placebo-controlled, sequential, single-ascending, two period, study was performed in healthy male subjects to evaluate the safety, tolerability, pharmacokinetic (PK), and pharmacodynamic (PD) properties of extended half-life GLP-1/GIP coagonist peptide. Healthy adult male subjects (about 18 to 55 years of age) who were in general good health based on medical history, physical examination, ECG, and routine laboratory tests (e.g., blood, chemistry, hematology, urinalysis, and drug screen) with a body mass index between 20 kg/m^2 and 30 kg/m^2 were selected for the study. The extended half-life GLP-1/GIP coagonist peptide tested in all of the Examples was SEQ ID NO: 153.
The subjects were randomized into cohorts.
Following an overnight fast of at least 10 hours, the subjects received a single dose of the study drug or placebo as a subcutaneous (SC) injection in the abdomen. Blood samples were collected for fasting insulin, glucose, and glucagon levels pre-dose (i.e., within 30 minutes prior to dosing) on Day 1 and on Days 2, 3, 4, 5, 6, and 7. Plasma samples for pharmacokinetic analysis were collected pre-dose and at 0.5, 1, 2, 4, 8, and 12 hours post-dose on Day 1 and on Days 2, 3, 4, 5, 6, 7, 14, 28, and 35. The subjects were monitored through Day 35 for adverse events, weight, and vital signs.

[3] = 4 mg, 8 mg, 16 mg, 72 hours after dosing
[4] = 4 mg, 8 mg, 16 mg, graded glucose infusion

extended half-life GLP-1/GIP coagonist peptide: The extended half-life GLP-1/GIP coagonist peptide tested in all of the Examples was SEQ ID NO: 153 (Y[Aib]EGTFTSDYSIYLDKQAA[Aib]EFVC(PEG 40 kDa)WLLAGGPSSGAPPPSK-NH2)
Cmax of plasma acetaminophen (gastric emptying; [3]): trend toward lower Cmax at a higher dose
Tmax of plasma acetaminophen compared to placebo (gastric emptying; [3]): not significantly different from placebo
total acetaminophen absorbed (AUC0-4 hr) compared to placebo (gastric emptying; [3]): not significantly different from placebo
delay in the absorption of acetaminophen (gastric emptying; 4 mg, 8 mg, 16 mg, 72 hours after dosing, 1000 mg acetaminophen): not associated with a significant delay
effect on gastric emptying (gastric emptying; doses that increase insulin secretion in response to a glucose infusion): does not delay gastric emptying
LS mean change in C peptide, comparison between dose groups ([1]; 4 mg vs 8 mg groups, p=0.0055): 0.01 ng/mL per mg/dL
LS mean change in insulin secretion rate, comparison between dose groups ([1]; 4 mg vs 8 mg groups, p=0.0067): 0.01 μIU/mL per mg/dL
LS mean change in insulin, comparison between dose groups ([1]; 4 mg vs 8 mg groups, p=0.0251): 0.09 μIU/mL per mg/dL
LS mean change in C peptide, comparison between dose groups ([1]; 4 mg vs 16 mg groups, p<0.0001): 0.03 ng/mL per mg/dL
LS mean change in insulin secretion rate, comparison between dose groups ([1]; 4 mg vs 16 mg groups, p<0.0001): 0.04 μIU/mL per mg/dL
LS mean change in insulin, comparison between dose groups ([1]; 4 mg vs 16 mg groups, p<0.0001): 0.17 μIU/mL per mg/dL
C-peptide level in comparison to placebo [1, 4]: dose dependent, dose proportional, increase
insulin secretion rate (ISR) in comparison to placebo [1, 4]: dose dependent, dose proportional, increase
LS mean change in insulin secretion rate at each glucose infusion rate, placebo vs treatment ([1]; 4 mg): 0.03 μIU/mL
LS mean change in C peptide at each glucose infusion rate, placebo vs treatment ([1]; 4 mg, p<0.0001): 0.02 ng/mL per mg/dL
LS mean change in insulin at each glucose infusion rate, placebo vs treatment ([1]; 4 mg, p<0.0001): 0.27 μIU/mL per mg/dL
LS mean change in C peptide, comparison between dose groups ([1]; 8 mg vs 16 mg groups, p<0.0001): 0.02 ng/mL per mg/dL
LS mean change in insulin secretion rate, comparison between dose groups ([1]; 8 mg vs 16 mg groups, p<0.0001): 0.03 μIU/mL per mg/dL
LS mean change in insulin, comparison between dose groups ([1]; 8 mg vs 16 mg groups, p=0.0316): 0.08 μIU/mL per mg/dL
LS mean change in insulin secretion rate at each glucose infusion rate, placebo vs treatment ([1]; 8 mg): 0.04 μIU/mL
LS mean change in C peptide at each glucose infusion rate, placebo vs treatment ([1]; 8 mg, p<0.0001): 0.03 ng/mL per mg/dL
LS mean change in insulin at each glucose infusion rate, placebo vs treatment ([1]; 8 mg, p<0.0001): 0.35 μIU/mL per mg/dL
increase in insulin secretion rate ([1]; 16 mg (maximum dose), vs placebo, p=0.001): approximately 44%
change in glucose levels between the 8 mg/kg/min and 12 mg/kg/min infusion rates ([1]; 16 mg and 8 mg groups): no increases in glucose levels
LS mean change in insulin secretion rate at each glucose infusion rate, placebo vs treatment ([1]; 16 mg): 0.07 μIU/mL
LS mean change in C peptide at each glucose infusion rate, placebo vs treatment ([1]; 16 mg, p<0.0001): 0.05 ng/mL per mg/dL
LS mean change in insulin at each glucose infusion rate, placebo vs treatment ([1]; 16 mg, p<0.0001): 0.43 μIU/mL per mg/dL
glucose levels compared to placebo group ([1]; all dose groups, all glucose infusion rates): lower glucose levels than the placebo group
AUC (AUC0-144) ([2]; 0.1 mg single SC dose, plasma): 12,349 pM·hr
Cmax ([2]; 0.1 mg single SC dose, plasma): 0.183 nM
AUC (AUC0-144) ([2]; 8 mg single SC dose, plasma): 1,382,376 pM·hr
Cmax ([2]; 8 mg single SC dose, plasma): 13 nM
mean daily fasting glucose level by day 7 ([2]; 16 mg dose): 76.5 mg/dL
time to maximum observed plasma concentration (Tmax) ([2]; 16 mg single SC dose): 112.5 h
mean daily fasting glucose level by day 7 ([2]; 24 mg dose): 72.7 mg/dL
time to maximum observed plasma concentration (Tmax) ([2]; 24 mg single SC dose): 56.0 h
mean daily fasting glucose level by day 7 ([2]; 32 mg dose): 71.7 mg/dL
time to maximum observed plasma concentration (Tmax) ([2]; 32 mg single SC dose): 80.0 h
AUC (AUC0-last) ([2]; 32 mg single SC dose, plasma): 12,582 nM·hr
Cmax ([2]; 32 mg single SC dose, plasma): 54.8 nM
absolute bioavailability ([2]; SC injection): 100%
dose proportionality of AUC and Cmax ([2]; doses ranging from 0.1 mg to 32 mg): dose proportional
dose-related trends for fasting insulin, glucose and glucagon levels ([2]; healthy subjects): No dose-related trends
apparent t1/2 ([2]; plasma, single SC dose, healthy male subjects): approximately 5 days
safety and tolerability ([2]; single SC doses 0.1 mg to 32 mg, healthy male subjects): generally safe and well tolerated; also recorded: well tolerated and not associated with adverse events, clinically important laboratory findings, or ECG findings
